In US20180282331A1, “7-Oxo -6-(sulfooxy)- 1,6-diazabicyclo [3.2.1] octane containing compounds and their use in treatment of bacterial infections (changed by PCT to: 7-OXO -6-(SULFOOXY)- 1,6-DIAZABICYCLO [3.2.1] OCTANE CONTAINING COMPOUNDS AND THEIR USE IN TREATMENT OF BACTERIAL INFECTIONS” (WOCKHARDT LIMITED, priority 2015, published 2018):

Assays:
Test in all cases: MIC, agar dilution (MHA), compound alone
Type in all cases: cell-based
E. coli 7 MP = conditions: Escherichia coli; E. coli 7 MP; compound alone; MHA, 35° C., 18 hours; read-out: MIC
Procedure: (§1) The biological activity of representative compounds according to the invention against various bacterial strains was investigated. The Minimum Inhibitory Concentration (MIC) determination for the combinations was carried out in Muller Hinton Agar (MHA) (BD, USA) according to Clinical and Laboratory Standards Institute (CLSI) recommendations, (Clinical and Laboratory Standards Institute (CLSI), Performance Standards for Antimicrobial Susceptibility Testing, 20th Informational Supplement, M 100-S20, Volume 30, No. 1, 2010). In short, the test strains were adjusted to deliver about 10^4 CFU per spot with a multipoint inoculator (Applied Quality Services, UK). The plates were poured with MHA containing doubling concentration range of representative compounds according to present invention. The plates were inoculated and were incubated at 35° C. for 18 hours. […] The Table 5 depicts the antibacterial activity profile of compounds according to present invention against various multidrug resistant bacterial strains.

E. coli M 50 = conditions: Escherichia coli, M50; E. coli M 50; compound alone; MHA, 35° C., 18 hours; read-out: MIC
Procedure: as §1

E. coli NCTC 13352 = conditions: Escherichia coli, NCTC13352; E. coli NCTC 13352; compound alone; MHA, 35° C., 18 hours; read-out: MIC
Procedure: as §1

E. coli NCTC 13353 = conditions: Escherichia coli, NCTC13353; E. coli NCTC 13353; compound alone; MHA, 35° C., 18 hours; read-out: MIC
Procedure: as §1

[1] = tested on: K. pneumoniae ATCC 700603; conditions: Klebsiella pneumoniae, ATCC700603; K. pneumoniae ATCC 700603; compound alone; MHA, 35° C., 18 hours; read-out: MIC
Procedure: as §1

K. pneumoniae H521 = conditions: Klebsiella pneumoniae; K. pneumoniae H521; compound alone; MHA, 35° C., 18 hours; read-out: MIC
Procedure: as §1

K. pneumoniae H525 = conditions: Klebsiella pneumoniae; K. pneumoniae H525; compound alone; MHA, 35° C., 18 hours; read-out: MIC
Procedure: as §1

SMILES	MIC (E. coli 7 MP) [µg/mL]	MIC (E. coli M 50) [µg/mL]	MIC (E. coli NCTC 13352) [µg/mL]	MIC (E. coli NCTC 13353) [µg/mL]	MIC [1] [µg/mL]	MIC (K. pneumoniae H521) [µg/mL]	MIC (K. pneumoniae H525) [µg/mL]
O=C(Cn1ccnc1CO)NNC(=O)[C@@H]1CC[C@@H]2CN1C(=O)N2OS(=O)(=O)[O-].[Na+] [Example 42]	2	0.5	1	0.5	> 32	2	1
NCc1nnn(CCONC(=O)[C@@H]2CC[C@@H]3CN2C(=O)N3OS(=O)(=O)O)n1 [Example 44, (2S,5R)-N-{2-[5-(aminomethyl)-2H-tetrazol-2-yl]ethoxy}-7-oxo-6-(sulfooxy)-1,6-diazabicyclo[3.2.1]octane-2-carboxamide]	> 32	> 32	> 32	> 32	> 32	> 32	> 32
NCCc1nnn(CCONC(=O)[C@@H]2CC[C@@H]3CN2C(=O)N3OS(=O)(=O)O)n1 [Example 46]	32	4	8	4	> 32	4	4
O=C(NOCCn1ccnn1)[C@@H]1CC[C@@H]2CN1C(=O)N2OS(=O)(=O)O [Example 47]	32	8	8	8	> 32	> 32	> 32
O=C(NOCCn1cncn1)[C@@H]1CC[C@@H]2CN1C(=O)N2OS(=O)(=O)O [Example 48]	> 32	8	16	8	> 32	> 32	32
CCOC(=O)c1nnnn1CCONC(=O)[C@@H]1CC[C@@H]2CN1C(=O)N2OS(=O)(=O)[O-].[Na+] [Example 49]	> 32	> 32	> 32	> 32	> 32	> 32	> 32
O=C(NOCCn1ncnn1)[C@@H]1CC[C@@H]2CN1C(=O)N2OS(=O)(=O)[O-].[Na+] [Example 50]	32	8	8	8	> 32	> 32	> 32
O=C(NOCCn1cnnn1)[C@@H]1CC[C@@H]2CN1C(=O)N2OS(=O)(=O)[O-].[Na+] [Example 51]	16	4	8	4	> 32	> 32	> 32
Cc1nnnn1CCONC(=O)[C@@H]1CC[C@@H]2CN1C(=O)N2OS(=O)(=O)[O-].[Na+] [Example 53]	32	> 32	8	4	> 32	16	16
O=C(NOCCn1nnc(CCO)n1)[C@@H]1CC[C@@H]2CN1C(=O)N2OS(=O)(=O)[O-].[Na+] [Example 55]	> 32	16	32	16	> 32	> 32	> 32
O=C(NOCCn1nnnc1CCO)[C@@H]1CC[C@@H]2CN1C(=O)N2OS(=O)(=O)[O-].[Na+] [Example 56]	> 32	4	8	4	> 32	8	16
